Measurements published in paper PMC8273893 (Journal of Medicinal Chemistry, 2021).

Key:
[1] = Parallel artificial membrane permeability assay; type: in vitro ADME; settings: 500 μM in donor, 20 h
Plasma stability = type: in vitro ADME; settings: 5 μM, 50% human plasma in PBS, 1 h, 37 °C

Compound | PAMPA (% flux) [1] [% flux] | plasma stability (% remaining) (Plasma stability)
O=C(O)c1ccc(NCc2c(-c3c(Cl)cccc3C(F)(F)F)noc2-c2cc[nH]c2)cc1 [Compound 2, 4-(((3-(2-Chloro-6-(trifluoromethyl)phenyl)-5-(1H-pyrrol-3-yl)isoxazol-4-yl)methyl)amino) Benzoic Acid] | 36.1 | 79.1
O=C(O)c1ccc(OCc2c(-c3c(Cl)cccc3C(F)(F)F)noc2-c2cc[nH]c2)cc1 [Compound 3, 4-((3-(2-Chloro-6-(trifluoromethyl)phenyl)-5-(1H-pyrrol-3-yl)isoxazol-4-yl)methoxy) Benzoic Acid] | 40.9 | 74.2
O=C(O)c1ccc(-c2nn(C(=O)c3c(Cl)cccc3C(F)(F)F)c3ccccc23)cc1 [Compound 1, reference compound] | 29.7 | 95.5
O=C(O)c1ccc(/C=C/c2c(-c3c(Cl)cccc3C(F)(F)F)noc2-c2cc[nH]c2)cc1 [Compound 6, (E)-4-(2-(3-(2-Chloro-6-(trifluoromethyl)phenyl)-5-(1H-pyrrol-3-yl)isoxazol-4-yl)vinyl) Benzoic Acid] | 40.3 | 59.5

The next lines start with the values.

PAMPA (% flux) [1] [% flux] | plasma stability (% remaining) (Plasma stability) | Compound
37.3 | 97.1 | O=C(O)c1ccc(OCc2c(-c3c(Cl)cccc3C(F)(F)F)noc2-c2cc[nH]c2)cc1F [Compound 9, 4-((3-(2-Chloro-6-(trifluoromethyl)phenyl)-5-(1H-pyrrol-3-yl)isoxazol-4-yl)methoxy)-2-fluorobenzoic Acid]
50.5 | 89.5 | O=C(O)c1ccc(OCc2c(-c3c(Cl)cccc3C(F)(F)F)noc2-c2ccc[nH]2)cc1 [Compound 10, 4-((3-(2-Chloro-6-(trifluoromethyl)phenyl)-5-(1H-pyrrol-2-yl)isoxazol-4-yl)methoxy) Benzoic Acid]
23.0 | 100 | O=C(O)c1ccc(OCc2c(-c3c(Cl)cccc3C(F)(F)F)noc2-c2cn[nH]c2)cc1 [Compound 11, 4-((3-(2-Chloro-6-(trifluoromethyl)phenyl)-5-(1H-pyrazol-4-yl)isoxazol-4-yl)methoxy) Benzoic Acid]
